Source: article PMC6332235, “Phosphonylated Acyclic Guanosine Analogues with the 1,2,3-Triazole Linker” (Molecules, 2015)
Where two headings read alike, the source gives them in different places.

Columns and labels:
[1] = test system: murine leukemia L1210 cells; assay: Cytostatic activity: inhibition of proliferation of murine leukemia L1210 cells; assay type: cell-based
Description: (§1) The cytotoxicity of the tested compounds toward the uninfected host cells was defined as the minimum cytotoxic concentration (MCC) that causes a microscopically-detectable alteration of normal cell morphology. The 50% cytotoxic concentration (CC50), causing a 50% decrease in cell viability, was determined using a colorimetric 3-(4,5-dimethylthiazol-2-yl)-5-(3-carboxymethoxyphenyl)-2-(4-sulfophenyl)-2H-tetrazolium (MTS) assay system. The cytostatic activity of the tested compounds was defined as the 50% cytostatic inhibitory concentration (IC50), causing a 50% decrease in cell proliferation, and was determined against murine leukemia L1210, human T-lymphocyte CEM and human cervix carcinoma HeLa cells (Table 1).
(§2) All assays were performed in 96-well microtiter plates. To each well were added (5−7.5) × 10^4 tumor cells and a given amount of the test compound. The cells were allowed to proliferate for 48 h (murine leukemia L1210 cells) or 72 h (human lymphocytic CEM and human cervix carcinoma HeLa cells) at 37 °C in a humidified CO2-controlled atmosphere. At the end of the incubation period, the cells were counted in a Coulter counter. The IC50 (50% inhibitory concentration) was defined as the concentration of the compound that inhibited cell proliferation by 50%.

[2] = test system: human T-lymphocyte CEM cells; assay: Cytostatic activity: inhibition of proliferation of human T-lymphocyte CEM cells; assay type: cell-based; details: read-out: IC50 (CEM)
Description: as §1, §2

[3] = test system: human cervix carcinoma HeLa cells; assay: Cytostatic activity: inhibition of proliferation of human cervix carcinoma HeLa cells; assay type: cell-based; details: read-out: IC50 (HeLa)
Description: as §1, §2

thymidine phosphorylase = test system: thymidine phosphorylase; parameters: method as in PMID 22372816; details: cited from earlier work
[4] = Mus musculus, L1210, 48 h, read-out: IC50 (L1210)
[5] = human cervix carcinoma HeLa cells, 72 h proliferation, Coulter counter
[6] = Mus musculus, L1210, 48 h, murine leukemia L1210 cells, 48 h proliferation, Coulter counter, read-out: IC50 (L1210)
[7] = CCRF-CEM, human T-lymphocyte CEM cells, 72 h proliferation, Coulter counter
[8] = Mus musculus, L1210, range over both L1210 and CEM cells and both 17k isomers, read-out: IC50 against proliferation of L1210 and CEM cell lines (range given)
[9] = range over both L1210 and CEM cells and both 17k isomers, read-out: IC50 against proliferation of L1210 and CEM cell lines (range given)

In the case of `CCOP(=O)(CC(O)Cn1cc(Cn2cnc3c(=O)[nH]c(N)nc32)nn1)OCC` (stereo not shown) [Compound 16f, Diethyl 3-{4-[(2-amino-6-oxo-1,6-dihydro-9H-purin-9-yl)methyl]-1H-1,2,3-triazol-1-yl}-2-hydroxypropylphosphonate], the IC50 [1, 4] is reported as over 250 µM, the IC50 ([2]; Homo sapiens, CCRF-CEM, 72 h) is reported as over 250 µM and the IC50 ([3]; Homo sapiens, HeLa, 72 h) is reported as 195 ± 78 µM.
`CCOP(=O)(COCCn1cc(Cn2cnc3c(Cl)nc(N)nc32)nn1)OCC` [Compound 17h, Diethyl 2-{4-[(2-amino-6-chloro-9H-purin-9-yl)methyl]-1H-1,2,3-triazol-1-yl}-ethoxymethylphosphonate] gave an IC50 [1, 4] of over 250 µM, an IC50 ([2]; Homo sapiens, CCRF-CEM, 72 h) of at least 250 µM and an IC50 ([3]; Homo sapiens, HeLa, 72 h) of over 250 µM.
Work on `CCOP(=O)(Cn1cc(Cn2cnc3c(=O)[nH]c(N)nc32)nn1)OCC` [Compound 16a, Diethyl {4-[(2-amino-6-oxo-1,6-dihydro-9H-purin-9-yl)methyl]-1H-1,2,3-triazol-1-yl}methylphosphonate] yielded an IC50 [1, 4] of over 250 µM, an IC50 ([2]; Homo sapiens, CCRF-CEM, 72 h) of over 250 µM and an IC50 ([3]; Homo sapiens, HeLa, 72 h) of over 250 µM.
In the case of `CCOP(=O)(CCCCn1cc(Cn2cnc3c(Cl)nc(N)nc32)nn1)OCC` [Compound 17d, Diethyl 4-{4-[(2-amino-6-chloro-9H-purin-9-yl)methyl]-1H-1,2,3-triazol-1-yl}butylphosphonate], the IC50 [1, 4] is reported as over 250 µM, the IC50 ([2]; Homo sapiens, CCRF-CEM, 72 h) is reported as over 250 µM and the IC50 ([3]; Homo sapiens, HeLa, 72 h) is reported as at least 250 µM.
Work on `CCOP(=O)(OCC)C(O)CCn1cc(Cn2cnc3c(=O)[nH]c(N)nc32)nn1` (stereo not shown) [Compound 16g, Diethyl 3-{4-[(2-amino-6-oxo-1,6-dihydro-9H-purin-9-yl)methyl]-1H-1,2,3-triazol-1-yl}-1-hydroxypropylphosphonate] yielded an IC50 [1, 4] of over 250 µM, an IC50 ([2]; Homo sapiens, CCRF-CEM, 72 h) of over 250 µM and an IC50 ([3]; Homo sapiens, HeLa, 72 h) of 185 ± 35 µM.
`CCOP(=O)(CCCn1cc(Cn2cnc3c(=O)[nH]c(N)nc32)nn1)OCC` [Compound 16c, Diethyl 3-{4-[(2-amino-6-oxo-1,6-dihydro-9H-purin-9-yl)methyl]-1H-1,2,3-triazol-1-yl}propylphosphonate] gave an IC50 [1, 4] of over 250 µM, an IC50 ([2]; Homo sapiens, CCRF-CEM, 72 h) of over 250 µM and an IC50 ([3]; Homo sapiens, HeLa, 72 h) of 138 ± 52 µM.
In the case of `CCOP(=O)(CCOCCn1cc(Cn2cnc3c(=O)[nH]c(N)nc32)nn1)OCC` [Compound 16i, Diethyl 2-{4-[(2-amino-6-oxo-1,6-dihydro-9H-purin-9-yl)methyl]-1H-1,2,3-triazol-1-yl}ethoxyethyphosphonate], the IC50 [1, 4] is reported as over 250 µM, the IC50 ([2]; Homo sapiens, CCRF-CEM, 72 h) is reported as over 250 µM and the IC50 ([3]; Homo sapiens, HeLa, 72 h) is reported as 210 ± 13 µM.
`CCOP(=O)(CCCCn1cc(Cn2cnc3c(=O)[nH]c(N)nc32)nn1)OCC` [Compound 16d, Diethyl 4-{4-[(2-amino-6-oxo-1,6-dihydro-9H-purin-9-yl)methyl]-1H-1,2,3-triazol-1-yl}butylphosphonate] showed an IC50 [1, 4] of over 250 µM, an IC50 ([2]; Homo sapiens, CCRF-CEM, 72 h) of over 250 µM and an IC50 ([3]; Homo sapiens, HeLa, 72 h) of 148 ± 25 µM.
`CCOP(=O)(CCOCCn1cc(Cn2cnc3c(Cl)nc(N)nc32)nn1)OCC` [Compound 17i, Diethyl 2-{4-[(2-amino-6-chloro-9H-purin-9-yl)methyl]-1H-1,2,3-triazol-1-yl}-ethoxyethylphosphonate] gave an IC50 [1, 4] of over 250 µM, an IC50 ([2]; Homo sapiens, CCRF-CEM, 72 h) of over 250 µM and an IC50 ([3]; Homo sapiens, HeLa, 72 h) of over 250 µM.
`CCOP(=O)(CCn1cc(Cn2cnc3c(Cl)nc(N)nc32)nn1)OCC` [Compound 17b, Diethyl 2-{4-[(2-amino-6-chloro-9H-purin-9-yl)methyl]-1H-1,2,3-triazol-1-yl}ethylphosphonate] showed an IC50 [1, 4] of at least 250 µM, an IC50 ([2]; Homo sapiens, CCRF-CEM, 72 h) of over 250 µM and an IC50 ([3]; Homo sapiens, HeLa, 72 h) of 227 ± 32 µM.
Compound `CCOP(=O)(OCC)C(O)CCn1cc(Cn2cnc3c(Cl)nc(N)nc32)nn1` (stereo not shown) [Compound 17g, Diethyl 3-{4-[(2-amino-6-chloro-9H-purin-9-yl)methyl]-1H-1,2,3-triazol-1-yl}-1-hydroxypropylphosphonate] has an IC50 [1, 4] of over 250 µM, an IC50 ([2]; Homo sapiens, CCRF-CEM, 72 h) of over 250 µM and an IC50 ([3]; Homo sapiens, HeLa, 72 h) of over 250 µM.
With “Diethyl 2-{4-[(2-amino-6-chloro-9H-purin-9-yl)methyl]-1H-1,2,3-triazol-1-yl}-acetamidoethylphosphonate [Compound 17j]” the IC50 ([1]; murine leukemia L1210 cells, 48 h proliferation, Coulter counter, read-out: IC50 (L1210)) was over 250 µM, the IC50 ([2]; human T-lymphocyte CEM cells, 72 h proliferation, Coulter counter) was over 250 µM and the IC50 [3, 5] was over 250 µM.
`CCOP(=O)(CC(O)Cn1cc(Cn2cnc3c(Cl)nc(N)nc32)nn1)OCC` (stereo not shown) [Compound 17f, Diethyl 3-{4-[(2-amino-6-chloro-9H-purin-9-yl)methyl]-1H-1,2,3-triazol-1-yl}-2-hydroxypropylphosphonate] gave an IC50 [1, 4] of over 250 µM, an IC50 ([2]; Homo sapiens, CCRF-CEM, 72 h) of over 250 µM and an IC50 ([3]; Homo sapiens, HeLa, 72 h) of over 250 µM.
Work on `CCOP(=O)(OCC)C(O)Cn1cc(Cn2cnc3c(=O)[nH]c(N)nc32)nn1` (stereo not shown) [Compound 16e, Diethyl 2-{4-[(2-amino-6-oxo-1,6-dihydro-9H-purin-9-yl)methyl]-1H-1,2,3-triazol-1-yl}-1-hydroxyethylphosphonate] yielded an IC50 [1, 4] of over 250 µM, an IC50 ([2]; Homo sapiens, CCRF-CEM, 72 h) of over 250 µM and an IC50 ([3]; Homo sapiens, HeLa, 72 h) of 206 ± 49 µM. It also gave a melting point of over 265 °C.
In the case of `O=c1[nH]cc(F)c(=O)[nH]1` [5-fluorouracil, reference compound], the IC50 [1, 6] is reported as 0.33 ± 0.17 µM, the IC50 [2, 7] is reported as 18 ± 5 µM and the IC50 [3, 5] is reported as 0.54 ± 0.12 µM.
In the case of `Nc1nc2c(ncn2Cc2cn(CCCCC(F)(F)P(=O)(O)O)nn2)c(=O)[nH]1` [Compound 13], the “Inhibitory activity against thymidine phosphorylase” value (thymidine phosphorylase) is listed as “inhibitory activity”.
`CCOP(=O)(CCn1cc(Cn2cnc3c(=O)[nH]c(N)nc32)nn1)OCC` [Compound 16b, Diethyl 2-{4-[(2-amino-6-oxo-1,6-dihydro-9H-purin-9-yl)methyl]-1H-1,2,3-triazol-1-yl}ethylphosphonate] gave an IC50 [1, 4] of over 250 µM, an IC50 ([2]; Homo sapiens, CCRF-CEM, 72 h) of over 250 µM and an IC50 ([3]; Homo sapiens, HeLa, 72 h) of over 250 µM.
`Nc1nc(Cl)c2ncn(Cc3cn(C[C@H](OCc4ccccc4)[C@H](O)P(=O)(OCc4ccccc4)OCc4ccccc4)nn3)c2n1` [(1R,2S)-17k, (1R,2S)-Dibenzyl 3-{4-[(2-amino-6-chloro-9H-purin-9-yl)methyl]-1H-1,2,3-triazol-1-yl}-2-benzyloxy-1-hydroxypropylphosphonate] gave an IC50 [1, 6] of 21 ± 2 µM, an IC50 [1, 8] of 15 to 30 µM and an IC50 [1, 9] of 16 to 30 µM. It also gave an IC50 [2, 7] of 26 ± 8 µM and an IC50 [3, 5] of 90 ± 33 µM.
In the case of `CCOP(=O)(OCC)C(O)Cn1cc(Cn2cnc3c(Cl)nc(N)nc32)nn1` (stereo not shown) [Compound 17e, Diethyl 2-{4-[(2-amino-6-chloro-9H-purin-9-yl)methyl]-1H-1,2,3-triazol-1-yl}-1-hydroxyethylphosphonate], the IC50 [1, 4] is reported as over 250 µM, the IC50 ([2]; Homo sapiens, CCRF-CEM, 72 h) is reported as over 250 µM and the IC50 ([3]; Homo sapiens, HeLa, 72 h) is reported as over 250 µM. It also gave a melting point of 174 to 175 °C.
Work on `CCOP(=O)(CCCn1cc(Cn2cnc3c(Cl)nc(N)nc32)nn1)OCC` [Compound 17c, Diethyl 3-{4-[(2-amino-6-chloro-9H-purin-9-yl)methyl]-1H-1,2,3-triazol-1-yl}propylphosphonate] yielded an IC50 [1, 4] of 227 ± 32 µM, an IC50 ([2]; Homo sapiens, CCRF-CEM, 72 h) of over 250 µM and an IC50 ([3]; Homo sapiens, HeLa, 72 h) of at least 250 µM.
`CCOP(=O)(Cn1cc(Cn2cnc3c(Cl)nc(N)nc32)nn1)OCC` [Compound 17a, Diethyl {4-[(2-amino-6-chloro-9H-purin-9-yl)methyl]-1H-1,2,3-triazol-1-yl}methylphosphonate] gave an IC50 [1, 4] of 283 ± 17 µM, an IC50 ([2]; Homo sapiens, CCRF-CEM, 72 h) of at least 250 µM and an IC50 ([3]; Homo sapiens, HeLa, 72 h) of at least 250 µM.
`CCOP(=O)(COCCn1cc(Cn2cnc3c(=O)[nH]c(N)nc32)nn1)OCC` [Compound 16h, Diethyl 2-{4-[(2-amino-6-oxo-1,6-dihydro-9H-purin-9-yl)methyl]-1H-1,2,3-triazol-1-yl}ethoxymethyphosphonate] gave an IC50 [1, 4] of over 250 µM, an IC50 ([2]; Homo sapiens, CCRF-CEM, 72 h) of over 250 µM and an IC50 ([3]; Homo sapiens, HeLa, 72 h) of at least 250 µM. It also gave a melting point of 89 to 92 °C.
With `Nc1nc(Cl)c2ncn(Cc3cn(C[C@H](OCc4ccccc4)[C@@H](O)P(=O)(OCc4ccccc4)OCc4ccccc4)nn3)c2n1` [(1S,2S)-17k, (1S,2S)-Dibenzyl 3-{4-[(2-amino-6-chloro-9H-purin-9-yl)methyl]-1H-1,2,3-triazol-1-yl}-2-benzyloxy-1-hydroxypropylphosphonate] the IC50 [1, 6] was 16 ± 6 µM, the IC50 [1, 8] was 15 to 30 µM and the IC50 [1, 9] was 16 to 30 µM. For the same compound, the IC50 [2, 7] was 30 ± 16 µM, the IC50 [3, 5] was 84 ± 12 µM and the melting point was 76 to 78 °C.
`CCOP(=O)(CNC(=O)Cn1cc(Cn2cnc3c(=O)[nH]c(N)nc32)nn1)OCC` [Compound 16j, Diethyl 2-{4-[(2-amino-6-oxo-1,6-dihydro-9H-purin-9-yl)methyl]-1H-1,2,3-triazol-1-yl}acetamidomethyphosphonate] gave an IC50 [1, 4] of over 250 µM, an IC50 ([2]; Homo sapiens, CCRF-CEM, 72 h) of over 250 µM and an IC50 ([3]; Homo sapiens, HeLa, 72 h) of 212 ± 54 µM. The melting point was over 230 °C.
